From US7875625B2, “Cyclohepta[b]pyridine-3-carbonylguanidine derivative and pharmaceutical product containing same” (Toa Eiyo Ltd., priority 2005, dated 2011) come the findings set out here.

Broadly, the IC50 is the concentration at which inhibition is half-maximal.

One data set concerns the target T1, Na^+/H^+ exchanger (NHE) (Rattus norvegicus, UniProt P26431).
T1 construct: from tissue; host or cells: platelet-rich plasma from Wistar rat blood
In words: NHE inhibitory effect test (swelling of rat platelets induced by sodium propionate). The class given is cell-based. The following applies: rat platelet-rich plasma, sodium propionate buffer pH 6.7; 300 μM Amiloride taken as 100% inhibition; Probit method. As to the method:
The NHE inhibitory activity was measured according to the method by Scholz et al. [British Journal of Pharmacology, Vol. 109, p. 562-568 (1993)], taking the swelling of rat platelets induced by sodium propionate as an index.
Under etherization, blood was collected (8 mL) from the abdominal aorta of a Wistar rat, and 1 mL of a citrate dextrose solution as an anticoagulant was added. The blood sample was immediately centrifuged at 90×g for 10 minutes, and then the collected supernatant was taken as platelet-rich plasma. Subsequently, to 250 μL of a 140 mM sodium propionate buffer solution containing the test compound dissolved in dimethylsulfoxide (pH 6.7, final dimethylsulfoxide concentration 1%), the platelet-rich plasma prepared in the above (number of platelet; 10×10^6/50 μL) was added, and the decrease in the absorbance associated with the swelling of platelets was measured over time with a Hematracer (NKK Corp.).
The rate of decrease in the absorbance at 20 seconds after the addition of the platelet-rich plasma was taken as the NHE activity, and the inhibitory activity of the respective compounds was expressed as a relative activity, while the action obtained upon addition of 300 μM of Amiloride was taken as 100% inhibition.
In addition, the test results were obtained by calculating the concentration at which the inhibitory activity of the test compound becomes 50% (IC50 value), by a Probit method.

The next data set concerns Beagle dogs. As to the kind of experiment: Toxicity test after 4-days repeated intravenous administration in beagle dogs. The class given is in vivo, dog. Conditions: equivalent of 30 mg/kg control compound intravenously once a day for 4 days. As to the method: With one male and one female dogs in each group, 30 mg/kg of the Control Compound dissolved in physiological saline (an amount calculated excluding salts), or an equivalent amount of the Inventive Compound 2, 4, 6 or 8 was repeatedly administered intravenously once a day for 4 days, and general symptom observation and pharmacological histopathologic examination were performed.

Data set [1] can be described thus: Metabolic stability test in rat (generation of control compound in plasma). The class given is in vivo. Conditions: male SD rats; for Plasma concentration of the control compound, after 5 min / Plasma concentration of the control compound, after 15 min / Plasma concentration of the control compound, after 30 min / Plasma concentration of the control compound, after 60 min / Plasma concentration of the control compound, after 120 min: equivalent of 1 mg/kg control compound via tail vein, LC/MS/MS; for Decomposition into the Control Compound in vivo (in words): tail vein, plasma 5-120 min. The text has this: The compound represented by Formula (1) of the present invention has a structure in which the hydroxyl group on the 9-position of a 9-hydroxymethyl-cyclohepta[b]pyridine-3-carbonylguanidine derivative is converted to a specific substituent. However, if the compound is metabolized in vivo to remove the specific substituent from the compound, there may be generated the original 9-hydroxymethyl-cyclohepta[b]pyridine-3-carbonylguanidine derivative, which has toxic effects on the central nervous system. Thus, the inventive compounds as synthesized in Examples were administered in vivo to study whether the control compound, which was the corresponding 9-hydroxymethyl product, was generated.
Male SD rats (7 weeks old) were administered at 1 mg/kg (an amount calculated excluding salts) of the control compound, an equivalent amount of the Inventive Compound 2, 4, 6, 7 or 12, or Reference Compound 20, through the tail vein. After administration, about 0.2 mL of blood samples were collected after 5, 15, 30, 60 and 120 minutes, and the blood samples were centrifuged at 4° C. at a speed of rotation of 15000 for 15 minutes, thus to separate the supernatant plasma. The concentration of the control compound in the plasma was measured by LC/MS/MS. The measurement results were shown as +++ when the detected plasma concentration of the control compound is 200 ng/mL or greater; ++ for more than 100 ng/mL and less than 200 ng/mL; + for more than 20 ng/mL and less than 100 ng/mL; and − for less than 20 ng/mL or no detection.

For a further data set, the system named is male mice. As to the kind of experiment: Toxicity test with 2-days repeated intraperitoneal administration in mouse. Conditions: equivalent of 300 mg/kg control compound intraperitoneally once a day for 2 days. The class given is in vivo. As to the method:
For three male mice in each group, 300 mg/kg of the Control Compound (an amount calculated excluding salts), or an equivalent amount of the Inventive Compound 2, 4, 6, 7 or 12 were intraperitoneally administered once a day for 2 days, and a histopathological tests were performed. The Control Compound, and the Inventive Compounds 2, 4 and 6 were suspended in a 0.5% tragacanth gum solution, and the Inventive Compound 7 was suspended in a 10 DMSO-containing 0.5% tragacanth gum solution, while the Inventive Compound 12 was suspended in olive oil. For the histopathological test, in order to make a more thorough examination of central nervous toxicity, the brain was examined after whole body was subjected to perfusion fixation with a 4% formaldehyde in neutral phosphate buffer as a fixing solution using a liquid transporting pump under pentobarbital sodium anesthesia.

Data set [2] relates to reperfusion-induced arrhythmia upon myocardial ischemia. As to the kind of experiment: Reperfusion-induced arrhythmia inhibitory action test. The class given is in vivo, rat. Conditions: male SD rats, 1 mL/kg intravenous. How it is done:
Subsequently, in evaluation of the in vivo NHE inhibitory action, the effect of the test compound on reperfusion-induced arrhythmia upon myocardial ischemia was evaluated according to the method of Aihara et al. [European Journal of Pharmacology, Vol. 404, p. 221-229 (2000)]. Under anesthesia using pentobarbital sodium (60 mg/kg, intraperitoneal administration), cannulae were inserted into trachea, femoral vein and carotid artery of male SD rats ([…]) for artificial ventilation, drug administration and blood pressure measurement, respectively. The blood pressure was measured using a strain pressure amplifier via a pressure transducer, while the heart rate was measured from the blood pressure pulse wave using a cardiotachometer. Furthermore, an electrocardiogram (lead II) was measured from the electrodes attached to each four limbs. Next, under artificial ventilation, left thoracotomy was performed and a snare (5-0 nylon) was loosely placed around a blood vessel which was about 3 mm apart from the origin of the left coronary artery. Thereafter, it was confirmed that arrhythmia was not occurred for 10 minutes, and then the snare was fastened to induce local myocardial ischemia. Furthermore, after 4 minutes of myocardial ischemia, the compound was intravenously administered for 1 minute, and after 5 minutes of myocardial ischemia, the snare was loosened, then the arrhythmia occurred after reperfusion was recorded and analyzed with an arrhythmia analyzer (Softron Co., Ltd.), thereby the anti-arrhythmic action of the compound was evaluated. […] The control group was administered with physiological saline.
With regard to the ventricular fibrillation (Vf) which occurred within 10 minutes after reperfusion (in the cases of halfway death, up to the time point where cardiac arrest was confirmed), arrhythmia analysis was performed according to the Guidelines for Lambeth Convention [Cardiovascular research, Vol. 22, p. 447-455, 1988], and evaluation was made in terms of the frequency of Vf occurrence, cumulative duration time of Vf, and the mortality.
The frequency of Vf occurrence, cumulative duration of Vf, and the mortality for the respective test compounds are presented in Table 2.

Data set [3] can be described thus: Comparative test for transferability to the brain in rat. The class given is in vivo. Conditions: male SD rats, 50 mg/kg via tail vein. As to the method: To male SD rats (6 weeks old), the Control Compound or the Inventive Compound 2 was administered through the tail vein in an amount of 50 mg/kg. After administration, whole blood samples were collected over time from the abdominal aorta under etherization, and the brain tissues were extracted immediately. The brain tissues were lightly washed off to remove the blood attached around with physiological saline, and subsequently the tissues were frozen in liquid nitrogen and preserved at −30° C. until analyzed. The blood was centrifuged at 4° C. at a rotation speed of 15000 for 15 minutes to separate the supernatant plasma, and was preserved at −30° C. until analyzed. The brain tissues were thawed by standing at ambient temperature, and then the wet weight was measured. Distilled water was added in an amount five times of the wet weight, and a suspension was prepared using a Polytron homogenizer. The measurement of the test compound concentration in the plasma and the brain tissues was performed by LC/MS/MS. The transferability of the drug to the brain was calculated by dividing the drug concentration in the brain tissues by the plasma concentration obtained at the same time.

[4] abbreviates: 3.62 mmol/L, within 10 minutes after reperfusion.

T1 sequence (P26431 whole entry): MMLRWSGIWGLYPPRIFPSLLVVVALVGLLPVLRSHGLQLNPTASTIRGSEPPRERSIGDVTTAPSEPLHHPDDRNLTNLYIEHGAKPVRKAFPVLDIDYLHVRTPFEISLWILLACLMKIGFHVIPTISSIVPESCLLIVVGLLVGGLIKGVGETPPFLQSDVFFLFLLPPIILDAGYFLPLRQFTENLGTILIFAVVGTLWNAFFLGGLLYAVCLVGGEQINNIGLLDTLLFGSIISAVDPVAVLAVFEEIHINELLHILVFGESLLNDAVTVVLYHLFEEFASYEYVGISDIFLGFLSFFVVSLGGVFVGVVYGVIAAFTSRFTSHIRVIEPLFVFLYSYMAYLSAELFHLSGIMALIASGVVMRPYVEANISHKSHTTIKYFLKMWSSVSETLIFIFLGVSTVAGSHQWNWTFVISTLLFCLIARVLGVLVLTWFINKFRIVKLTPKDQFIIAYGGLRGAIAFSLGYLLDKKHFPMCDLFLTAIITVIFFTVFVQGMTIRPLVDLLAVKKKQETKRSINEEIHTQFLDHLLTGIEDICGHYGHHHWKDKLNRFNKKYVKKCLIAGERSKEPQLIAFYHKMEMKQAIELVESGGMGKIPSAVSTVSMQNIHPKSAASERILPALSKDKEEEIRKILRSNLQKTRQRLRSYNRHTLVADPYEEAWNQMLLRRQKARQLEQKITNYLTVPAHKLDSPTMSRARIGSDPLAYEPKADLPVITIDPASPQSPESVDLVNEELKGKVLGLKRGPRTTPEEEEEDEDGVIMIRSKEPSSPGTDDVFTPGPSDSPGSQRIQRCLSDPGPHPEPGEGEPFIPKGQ

The compound `Cc1nc2c(cc1C(=O)NC(=N)N)CCCCC2COC(=O)NCCOS(=O)(=O)[O-].[Na+]` (stereo not shown) [Inventive Compound 6, 2-(3-Guanidinocarbonyl-2-methyl-6,7,8,9-tetrahydro-5H-cyclohepta[b]pyridin-9-ylmethyloxycarbonylamino)ethyl sulfate sodium salt] yielded an IC50 against Na^+/H^+ exchanger (NHE) of 0.142 µM. Further, in the data set on Beagle dogs, the “General condition (symptom observation)” value is given as “only vomiting was recognized” and the “Pathologic examination of the brain” value is reported as “any histologic finding which could be caused by drug administration was not recognized”. For the same compound, in data set [1], the “Plasma concentration of the control compound, after 5 min” value (from here on “Plasma concentration … after 5 min”) is reported as “− (− for less than 20 ng/mL or no detection)”; the “Plasma concentration of the control compound, after 15 min” value (“Plasma concentration … after 15 min” for short) is recorded as “− (− for less than 20 ng/mL or no detection)”; the “Plasma concentration of the control compound, after 30 min” value (from here on “Plasma concentration … after 30 min”) was “− (− for less than 20 ng/mL or no detection)”; the “Plasma concentration of the control compound, after 60 min” value (from here on “Plasma concentration … after 60 min”) was “− (− for less than 20 ng/mL or no detection)”. Further, in data set [1], the “Plasma concentration of the control compound, after 120 min” value (from here on “Plasma concentration … after 120 min”) is on record as “− (− for less than 20 ng/mL or no detection)” and the “Decomposition into the Control Compound in vivo (in words)” value is given as “not detected at any time point”. Further, the “Histopathological finding in the brain” value in the data set on male mice is listed as “any histologic finding which could be caused by drug administration was not recognized”. In addition, in data set [2] (1.09 mmol/L, 5 animals), the “Cumulative duration of Vf” value stood at 23.3 s, the “Frequency of Vf occurrence” value is given as 20% and the Mortality was 0%.

Consider `CS(=O)(=O)O.Cc1nc2c(cc1C(=O)NC(=N)N)CCCCC2CO` (stereo not shown) [Control Compound, 9-Hydroxymethyl-2-methyl-6,7,8,9-tetrahydro-5H-cyclohepta[b]pyridine-3-carbonylguanidine methanesulfonic acid salt, reference compound], for which the “Concentration Intracerebral/Plasma, after 15 min” value in data set [3] (15 min) stood at 1.64. For the same compound, the “Concentration Intracerebral/Plasma, after 30 min” value in data set [3] (30 min) was 2.33. On Na^+/H^+ exchanger (NHE), the IC50 came out at 0.0334 µM. Besides, in the data set on Beagle dogs, the “General condition (symptom observation)” value is “vomiting, salivation, and decreases in locomotor activity, staggering gait and ananastasia”; the “Pathologic examination of the brain” value is “necrosis/chromatolysis of nerve cells, swelling of axons and vacuolation of myelin sheath”. Also, in data set [1], the “Plasma concentration … after 5 min” value is “+++ (+++ when the detected plasma concentration of the control compound is 200 ng/mL or greater)”; the “Plasma concentration … after 15 min” value is “++ (++ for more than 100 ng/mL and less than 200 ng/mL)”; the “Plasma concentration … after 30 min” value was “+ (+ for more than 20 ng/mL and less than 100 ng/mL)”; the “Plasma concentration … after 60 min” value was “+ (+ for more than 20 ng/mL and less than 100 ng/mL)”. Moreover, in data set [1], the “Plasma concentration … after 120 min” value is listed as “− (− for less than 20 ng/mL or no detection)”. Further, in the data set on male mice, the “Histopathological finding in the brain” value is “vacuolation was recognized in the cerebellar nuclei and vestibular nuclei”. Further, in data set [2] (setting [4]), the “Cumulative duration of Vf” value came to 30.2 s, the “Frequency of Vf occurrence” value is on record as 50% and the Mortality stood at 25%.

The compound `Cc1nc2c(cc1C(=O)NC(=N)N)CCCCC2CS(=O)(=O)[O-].[Na+]` (stereo not shown) [Inventive Compound 4, 3-Guanidinocarbonyl-2-methyl-6,7,8,9-tetrahydro-5H-cyclohepta[b]pyridin-9-ylmethanesulfonic acid sodium salt] registered a half-inhibitory concentration (IC50) against Na^+/H^+ exchanger (NHE) of 0.211 µM. In addition, in the data set with Beagle dogs, the “General condition (symptom observation)” value is given as “only vomiting was recognized” and the “Pathologic examination of the brain” value is on record as “any histologic finding which could be caused by drug administration was not recognized”. Besides, in data set [1], the “Plasma concentration … after 5 min” value is “− (− for less than 20 ng/mL or no detection)”; the “Plasma concentration … after 15 min” value is listed as “− (− for less than 20 ng/mL or no detection)”; the “Plasma concentration … after 30 min” value was “− (− for less than 20 ng/mL or no detection)”; the “Plasma concentration … after 60 min” value is reported as “− (− for less than 20 ng/mL or no detection)”. In data set [1], the “Plasma concentration … after 120 min” value was “− (− for less than 20 ng/mL or no detection)” and the “Decomposition into the Control Compound in vivo (in words)” value is “not detected at any time point”. Also, the “Histopathological finding in the brain” value with male mice is on record as “any histologic finding which could be caused by drug administration was not recognized”. Moreover, in data set [2] (setting [4]), the “Cumulative duration of Vf” value was determined as 25.3 s, the “Frequency of Vf occurrence” value is on record as 60% and the Mortality was 0%.
